These compounds were tested against T1, human mPGES-1 (Homo sapiens, UniProt O14684) (assay: Evaluation of human mPGES-1 enzyme inhibitory activity (PGE2 measured by HTRF, microsome fraction of CHO-S cells expressing human mPGES-1)). Details: IC50 value; microsome fraction of CHO-S cells expressing human mPGES-1, PGE2 by HTRF.
T1 construct: made in house; host or cells: FreeStyle CHO-S cells (Chinese hamster ovary), transient transfection with pcDNA3.1(+)/human mPGES-1; microsome fraction used
T1 sequence (O14684 1-152): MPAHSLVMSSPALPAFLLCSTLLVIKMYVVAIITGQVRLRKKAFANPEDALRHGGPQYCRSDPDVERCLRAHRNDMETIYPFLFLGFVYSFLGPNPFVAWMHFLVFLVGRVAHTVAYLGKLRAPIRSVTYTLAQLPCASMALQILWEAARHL
Format: biochemical
Summary of the method: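 Enzyme source: microsomes from CHO-S cells transfected with human mPGES-1 and cultured 48 hr, diluted to 5 μg/mL protein in reduced GSH (12.5 mmol/L KPB solution). Test articles were in 0.1 mol/L potassium phosphate pH 7.4, final DMSO 2% (v/v). PGE2 formed was quantified by HTRF.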

Compound | IC50 [nM]
CCN(Cc1ccc(Cl)c(-c2nc(O)nc(-c3ccc(OCC(C)(C)C)cc3)n2)c1)C(=O)OC(C)(C)C [Example 1-209] | 59
CCNCc1ccc(Cl)c(-c2nc(O)nc(-c3ccc(OCC(C)(C)C)cc3)n2)c1 [Example 1-210] | 288
CN(Cc1ccc(Cl)c(-c2nc(O)nc(-c3ccc(OCC4CCCCC4)cc3)n2)c1)C(=O)C(C)(C)C(F)(F)F [Example 1-211] | 63
CC(C)(C)COc1ccc(-c2nc(O)nc(-c3cc(CNCC(F)(F)F)ccc3Cl)n2)cc1 [Example 1-212] | 32
CN(Cc1ccc(Cl)c(-c2nc(O)nc(-c3ccc(C#CC4CCCCC4)cc3)n2)c1)C(=O)C(C)(C)C(F)(F)F [Example 1-213] | 88
CC(C)(C)COc1ccc(-c2nc(O)nc(-c3cc(CC(C)(C)O)ccc3Cl)n2)cc1 [Example 1-214] | 24
COC(C)(C)Cc1ccc(Cl)c(-c2nc(O)nc(-c3ccc(OCC(C)(C)C)cc3)n2)c1 [Example 1-215] | 452
CC(O)Cc1ccc(Cl)c(-c2nc(O)nc(-c3ccc(OCC(C)(C)C)cc3)n2)c1 (stereo not shown) [Example 1-216] | 39
CC(C)(C)COc1ccc(-c2nc(O)nc(-c3cc(CCC(=O)NC(C)(C)C)ccc3Cl)n2)cc1 [Example 1-217] | 126
CN(C)C(=O)CCc1ccc(Cl)c(-c2nc(O)nc(-c3ccc(OCC(C)(C)C)cc3)n2)c1 [Example 1-218] | 70
CC(C)COCc1ccc(Cl)c(-c2nc(O)nc(-c3ccc(C#CC4CCCCC4)cc3)n2)c1 [Example 1-219] | 41
CN(Cc1ccc(Cl)c(-c2nc(O)nc(-c3ccccc3)n2)c1)C(=O)C(C)(C)C(F)(F)F [Example 1-220] | 16
CN(Cc1ccc(Cl)c(-c2nc(O)nc(-c3ccccc3)n2)c1)C(=O)C(C)(C)C [Example 1-221] | 79
CC(C)C(=O)N(C)Cc1ccc(Cl)c(-c2nc(O)nc(-c3ccccc3)n2)c1 [Example 1-222] | 165
CN(Cc1ccc(Cl)c(-c2nc(O)nc(-c3ccc(OCC(C)(C)C)cc3)n2)c1)S(=O)(=O)C(C)(C)C [Example 1-223] | 7
CCC(=O)N(C)Cc1ccc(Cl)c(-c2nc(O)nc(-c3ccccc3)n2)c1 [Example 1-224] | 5800
CCCC(=O)N(C)Cc1ccc(Cl)c(-c2nc(O)nc(-c3ccccc3)n2)c1 [Example 1-225] | 4200

Compound | IC50 [nM]
CC(C)CC(=O)N(C)Cc1ccc(Cl)c(-c2nc(O)nc(-c3ccccc3)n2)c1 [Example 1-226] | 2200
CN(CCc1ccc(Cl)c(-c2nc(O)nc(-c3ccc(OCC(C)(C)C)cc3)n2)c1)C(=O)C(C)(C)C(F)(F)F [Example 1-227] | 50
CN(Cc1ccc(Cl)c(-c2nc(O)nc(-c3ccccc3)n2)c1)C(=O)C1CCCC1 [Example 1-228] | 672
CN(Cc1ccc(Cl)c(-c2nc(O)nc(-c3ccccc3)n2)c1)C(=O)C1CCCCC1 [Example 1-229] | 532
CN(Cc1ccc(Cl)c(-c2nc(O)nc(-c3ccccc3)n2)c1)C(=O)c1ccccc1 [Example 1-230] | 750
CCC(C)(C)C(=O)N(C)Cc1ccc(Cl)c(-c2nc(O)nc(-c3ccccc3)n2)c1 [Example 1-231] | 45
CC(C)Cc1ccc(-c2nc(O)nc(-c3cc(CC(=O)N(C)C(C)(C)C)ccc3Cl)n2)cc1 [Example 1-232] | 521
CCC(CC)C(=O)N(C)Cc1ccc(Cl)c(-c2nc(O)nc(-c3ccccc3)n2)c1 [Example 1-233] | 848
COC(C)(C)C(=O)N(C)Cc1ccc(Cl)c(-c2nc(O)nc(-c3ccccc3)n2)c1 [Example 1-234] | 1000
CCN(Cc1ccc(Cl)c(-c2nc(O)nc(-c3ccc(OCC(C)(C)C)cc3)n2)c1)C(=O)C(C)(C)C(F)(F)F [Example 1-235] | 70
CC1(C)CN(Cc2ccc(Cl)c(-c3nc(O)nc(-c4ccccc4)n3)c2)C1=O [Example 1-236] | 263
CN(Cc1ccc(Cl)c(-c2nc(O)nc(-c3ccccc3)n2)c1)C(=O)C(C)(C)c1ccccc1 [Example 1-237] | 1300
CN(Cc1ccc(Cl)c(-c2nc(O)nc(-c3ccccc3)n2)c1)C(=O)C1(C(F)(F)F)CCCC1 [Example 1-238] | 7.4
COCC(C)(C)C(=O)N(C)Cc1ccc(Cl)c(-c2nc(O)nc(-c3ccccc3)n2)c1 [Example 1-239] | 428
CC1(C)CCN(Cc2ccc(Cl)c(-c3nc(O)nc(-c4ccccc4)n3)c2)C1=O [Example 1-240] | 428
CC1(C)CCCN(Cc2ccc(Cl)c(-c3nc(O)nc(-c4ccccc4)n3)c2)C1=O [Example 1-241] | 278

Other lines, results leading:

IC50 [nM] | Compound
82 | CO[C@](C)(C(=O)N(C)Cc1ccc(Cl)c(-c2nc(O)nc(-c3ccccc3)n2)c1)C(F)(F)F [Example 1-242]
120 | CO[C@@](C)(C(=O)N(C)Cc1ccc(Cl)c(-c2nc(O)nc(-c3ccccc3)n2)c1)C(F)(F)F [Example 1-243]
21 | CN(Cc1ccc(Cl)c(-c2nc(O)nc(-c3ccccc3)n2)c1)C(=O)C1(C(F)(F)F)CCCCC1 [Example 1-244]
108 | CCCC(C)(C)C(=O)N(C)Cc1ccc(Cl)c(-c2nc(O)nc(-c3ccccc3)n2)c1 [Example 1-245]
307 | CN(Cc1ccc(Cl)c(-c2nc(O)nc(-c3ccccc3)n2)c1)C(=O)C1Cc2ccccc2C1 [Example 1-246]
11 | O=C(NCc1ccc(Cl)c(-c2nc(O)nc(-c3ccccc3)n2)c1)C1(CO)CCCCC1 [Example 1-247]
16 | O=C1N(Cc2ccc(Cl)c(-c3nc(O)nc(-c4ccccc4)n3)c2)CC12CCCCC2 [Example 1-248]
226 | CN(Cc1ccc(Cl)c(-c2nc(O)nc(-c3ccccc3)n2)c1)C(=O)C(C)(C)Cc1ccccc1 [Example 1-249]
12 | CCC(CC)(CO)C(=O)NCc1ccc(Cl)c(-c2nc(O)nc(-c3ccccc3)n2)c1 [Example 1-250]
18 | CCC1(CC)CN(Cc2ccc(Cl)c(-c3nc(O)nc(-c4ccccc4)n3)c2)C1=O [Example 1-251]
511 | CCO[C@](C)(C(=O)N(C)Cc1ccc(Cl)c(-c2nc(O)nc(-c3ccccc3)n2)c1)C(F)(F)F [Example 1-252]
791 | CCO[C@@](C)(C(=O)N(C)Cc1ccc(Cl)c(-c2nc(O)nc(-c3ccccc3)n2)c1)C(F)(F)F [Example 1-253]
30 | O=C(NCc1ccc(Cl)c(-c2nc(O)nc(-c3ccccc3)n2)c1)C1(CO)CCCC1 [Example 1-254]
45 | O=C1N(Cc2ccc(Cl)c(-c3nc(O)nc(-c4ccccc4)n3)c2)CC12CCCC2 [Example 1-255]
1900 | CC1(C)C(=O)N(Cc2ccc(Cl)c(-c3nc(O)nc(-c4ccccc4)n3)c2)c2ccccc21 [Example 1-258, 1-[4-chloro-3-(4-hydroxy-6-phenyl-1,3,5-triazin-2-yl)-benzyl]-3,3-dimethyl-1,3-dihydroindol-2-one]
176 | CCCC(CO)(CCC)C(=O)NCc1ccc(Cl)c(-c2nc(O)nc(-c3ccccc3)n2)c1 [Example 1-259]
147 | CCCC1(CCC)CN(Cc2ccc(Cl)c(-c3nc(O)nc(-c4ccccc4)n3)c2)C1=O [Example 1-260]
7 | CC1(C(=O)NCc2ccc(Cl)c(-c3nc(O)nc(-c4ccccc4)n3)c2)Cc2ccccc2C1 [Example 1-262]

IC50 [nM] | Compound
702 | CCN(Cc1ccc(Cl)c(-c2nc(O)nc(-c3ccccc3)n2)c1)C(=O)C(C)(C)C(F)(F)F [Example 1-263, N-[4-chloro-3-(4-hydroxy-6-phenyl-1,3,5-triazin-2-yl)benzyl]-N-ethyl-3,3,3-trifluoro-2,2-dimethylpropionamide]
163 | CN(Cc1ccc(Cl)c(-c2nc(O)nc(-c3ccccc3)n2)c1)C(=O)C1(C)Cc2ccccc2C1 [Example 1-264]
56 | CC(C)(C)OC(=O)N1CCC2(CC1)CCN(Cc1ccc(Cl)c(-c3nc(O)nc(-c4ccccc4)n3)c1)C2=O [Example 1-265]
283 | Cc1cccc(C)c1-c1nc(O)nc(-c2ccc(C(F)(F)F)cc2)n1 [Example 2-1]
21300 | Cc1cccc(C)c1-c1nc(O)nc(-c2ccccc2)n1 [Example 2-2]
14700 | Cc1cc(C(F)(F)F)ccc1-c1nc(O)nc(-c2c(C)cccc2C)n1 [Example 2-3]
66 | COc1cccc(Cl)c1-c1nc(O)nc(-c2ccc(C(F)(F)F)cc2)n1 [Example 2-4]
101 | Cc1cccc(C)c1-c1nc(O)nc(-c2ccc(OCc3ccccc3)cc2)n1 [Example 2-5]
3500 | Cc1cccc(C)c1-c1nc(O)nc(-c2ccc(C(C)(C)C)cc2)n1 [Example 2-7]
1900 | Cc1cccc(C)c1-c1nc(O)nc(-c2ccc(C(C)C)cc2)n1 [Example 2-8]
6400 | Cc1cccc(C)c1-c1nc(O)nc(-c2ccc(C(F)(F)F)cc2F)n1 [Example 2-9]
73 | Oc1nc(-c2ccc(C(F)(F)F)cc2)nc(-c2c(F)cccc2Cl)n1 [Example 2-10]
6 | Cc1cccc(C)c1-c1nc(O)nc(-c2ccc(C#Cc3ccccc3)cc2)n1 [Example 2-11]
141 | Cc1cccc(C)c1-c1nc(O)nc(-c2ccc(CCc3ccccc3)cc2)n1 [Example 2-12]
23100 | Cc1cccc(-c2nc(O)nc(-c3c(C)cccc3C)n2)c1 [Example 2-13]
14300 | COc1cccc(-c2nc(O)nc(-c3c(C)cccc3C)n2)c1 [Example 2-14]
16400 | Cc1cccc(C)c1-c1nc(O)nc(-c2cccc(F)c2)n1 [Example 2-15]

Same assay, conditions: at 30 μM test article

inhibition at 30 µM [%] | Compound
44 | CCC(=O)N(CC)Cc1ccc(Cl)c(-c2nc(O)nc(-c3ccccc3)n2)c1 [Example 1-261]
28 | Cc1cccc(C)c1-c1nc(O)nc(-c2ccc(O)cc2)n1 [Example 2-6]
